In the supplement of paper PMC10307832:

What was measured:
Assay in all cases: relative viability (nuclei count vs DMSO), 5 days (fraction); higher = more cells survive
QS11 = compound: C1CC2=C(C1)C=C(C=C2)OC3=NC(=C4C(=N3)N(C=N4)CC5=CC=C(C=C5)C6=CC=CC=C6)N[C@@H](CC7=CC=CC=C7)CO [QS11]
Method in brief: (§1)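 Nuclei counted with MetaXpress define viability as the ratio of treated to vehicle wells, given as a median across plates. The lung cancer cell lines were in 1536-well plates, pinned with five √10-spaced library-drug doses and imaged at 4× after 5 days and Hoechst staining. Plates passed with control CV below 25% and at least one doubling.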

AZ628 = compound: CC1=C(C=C(C=C1)NC(=O)C2=CC(=CC=C2)C(C)(C)C#N)NC3=CC4=C(C=C3)N=CN(C4=O)C [AZ628]
Method in brief: as §1

Darinaparsin = compound: C[As](C)SC[C@H](NC(=O)CC[C@H](N)C(=O)O)C(=O)NCC(=O)O [Darinaparsin]
Method in brief: as §1

AZ628 + Dasatinib = compound: CC1=C(C=C(C=C1)NC(=O)C2=CC(=CC=C2)C(C)(C)C#N)NC3=CC4=C(C=C3)N=CN(C4=O)C [AZ628] + Cc1nc(Nc2ncc(C(=O)Nc3c(C)cccc3Cl)s2)cc(N2CCN(CCO)CC2)n1 [Dasatinib] (partner 0.075 µM)
Method in brief: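 Relative viability is defined as nuclei in treated wells over nuclei in vehicle wells. Duplicate plates were run and medians reported. Lung cancer cell lines in 1536-well plates were dosed by pin tool one day after seeding, with one drug or with a fixed anchor-drug dose plus five library-drug doses (not always all listed) in √10 steps, and nuclei were counted after 5 days.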

Row | Cell Line | relative viability (QS11; 0.08 µM) | relative viability (QS11; 0.253 µM) | relative viability (QS11; 2.53 µM) | relative viability (QS11; 8 µM) | relative viability (AZ628; 0.08 µM) | relative viability (AZ628; 0.253 µM) | relative viability (AZ628; 0.8 µM) | relative viability (AZ628; 2.53 µM) | relative viability (AZ628; 8 µM) | relative viability (Darinaparsin; 0.08 µM) | relative viability (Darinaparsin; 0.8 µM) | relative viability (Darinaparsin; 2.53 µM) | relative viability (Darinaparsin; 8 µM) | relative viability (AZ628 + Dasatinib; first compound 0.08 µM) | relative viability (AZ628 + Dasatinib; first compound 0.253 µM) | relative viability (AZ628 + Dasatinib; first compound 0.8 µM) | relative viability (AZ628 + Dasatinib; first compound 2.53 µM) | relative viability (AZ628 + Dasatinib; first compound 8 µM) | relative viability (QS11; 0.8 µM)
1 | NCI-H1944 | 0.999 | 0.947 | 0.958 | 0.884 | 1.06 | 0.917 | 0.792 | 0.729 | 0.727 | 1 | 0.997 | 0.959 | 1.14 | 0.209 | 0.211 | 0.208 | 0.192 | 0.197 | –
2 | NCI-H322M | 0.923 | 0.904 | 1.15 | 1.41 | 1.1 | 0.952 | 0.986 | 0.95 | 0.788 | 1.02 | 0.951 | 0.767 | 1.03 | 0.28 | 0.261 | 0.264 | 0.231 | 0.268 | 0.998
3 | LCLC-103H | 1.01 | 1 | 0.988 | 1.05 | 0.99 | 0.891 | 1.07 | 0.998 | 0.903 | 1.15 | 0.923 | 0.976 | 1.15 | 0.559 | 0.427 | 0.523 | 0.399 | 0.478 | 0.749
4 | SK-MES-1 | 1.12 | 0.952 | 0.95 | 0.946 | 0.945 | 0.99 | 0.923 | 0.92 | 0.595 | 1.15 | 1.05 | 0.948 | 1.26 | 0.347 | 0.342 | 0.287 | 0.338 | 0.218 | 0.941
5 | A-427 | 0.862 | 1.05 | 1.05 | 1.04 | 0.999 | 0.891 | 0.884 | 0.919 | 0.436 | 1.1 | 0.96 | 1.03 | 1.13 | 0.594 | 0.472 | 0.301 | 0.314 | 0.153 | –
6 | NCI-H1563 | 0.951 | 1.02 | 1.12 | 0.971 | 0.997 | 0.925 | 0.991 | 0.952 | 1.05 | 1.05 | 0.948 | 0.996 | 1.04 | 0.477 | 0.436 | 0.469 | 0.487 | 0.475 | 0.965
7 | NCI-H1355 | 0.933 | 0.918 | 0.981 | 0.986 | 1.02 | 0.975 | 0.956 | 0.938 | 0.781 | 1.06 | 0.939 | 0.865 | 1.1 | 0.723 | 0.663 | 0.611 | 0.626 | 0.458 | 0.769
8 | NCI-H2170 | 1.04 | 1 | 1.05 | 1.2 | 1.01 | 0.964 | 0.936 | 1.02 | 0.983 | 1.11 | 0.978 | 0.845 | 1.18 | 0.555 | 0.391 | 0.46 | 0.557 | 0.481 | 0.728
9 | NCI-H1793 | 0.866 | 0.807 | 1.07 | 1.09 | 1.1 | 0.829 | 0.957 | 0.783 | 0.61 | 0.981 | 0.934 | 0.707 | 1.02 | 0.422 | 0.315 | 0.354 | 0.344 | 0.388 | 1.05
10 | NCI-H2023 | 1.04 | 0.987 | 1.09 | 0.805 | 1.11 | 1.03 | 0.974 | 0.915 | 0.674 | 1.08 | 0.952 | 0.992 | 1.23 | 0.617 | 0.647 | 0.444 | 0.436 | 0.396 | 0.895
11 | NCI-H520 | 0.864 | 1.04 | 1.11 | 1.14 | 1.06 | 0.994 | 0.937 | 0.937 | 0.878 | 1.12 | 0.947 | 0.833 | 1.09 | 0.254 | 0.189 | 0.325 | 0.18 | 0.215 | 1.12
12 | NCI-H2087 | 1.02 | 0.937 | 0.874 | 0.898 | 0.92 | 0.671 | 0.729 | 0.814 | 0.336 | 1.14 | 1.14 | 1.01 | 1.13 | 0.565 | 0.32 | 0.226 | 0.237 | 0.154 | 0.854
13 | NCI-H2342 | 0.888 | 1.02 | 0.998 | 0.998 | 1.1 | 0.898 | 1.02 | 0.935 | 0.995 | 0.953 | 0.888 | 0.939 | 1.08 | 0.319 | 0.307 | 0.327 | 0.306 | 0.298 | 1.07
14 | NCI-H596 | 0.931 | 0.833 | 0.969 | 1.09 | 1.05 | 1.03 | 1.1 | 1.06 | 1.01 | 0.937 | 1.05 | 0.938 | 1.05 | 0.693 | 0.618 | 0.573 | 0.565 | 0.471 | 1.15
15 | NCI-H2009 | 1.03 | 1.01 | 0.902 | 0.894 | 0.948 | 0.933 | 0.598 | 0.711 | 0.379 | 1.12 | 1.03 | 0.949 | 1.03 | 0.202 | 0.258 | 0.182 | 0.173 | 0.184 | 0.756
16 | NCI-H522 | 0.872 | 0.96 | 0.944 | 0.875 | 0.922 | 0.827 | 0.755 | 1.11 | 0.815 | 0.969 | 0.992 | 0.972 | 1.07 | 0.758 | 0.952 | 0.732 | 0.919 | 0.731 | 0.934
17 | NCI-H1993 | 1.02 | 0.884 | 0.992 | 0.824 | 0.995 | 0.848 | 0.835 | 0.735 | 0.515 | 1.02 | 0.885 | 1.03 | 0.922 | 0.556 | 0.546 | 0.613 | 0.578 | 0.553 | 0.918
